Laboratory results published in patent US20120202794A1 (priority 2011, published 2012).

Columns and labels:
[1] = Cell cytotoxicity assay (MTS), CC90 as reported in Table 1, cell line not stated; format: cell-based; conditions: human; cell line not given
Method: Cell cytotoxicity assays. Each compound (serially diluted from 100 μM) was added to Huh7 (2×10^3 cells/well), HepG2 (2×10^3 cells/well), BxPC3 (2×10^3 cells/well), or CEM (5×10^3 cells/well) cells and allowed to incubate for 8 days at 37° C. A medium only control was used to determine the minimum absorbance value […]. At the end of the growth period, MTS dye from the CellTiter 96 Aqueous One Solution Cell Proliferation Assay kit (Promega) was added to each well and the plate was incubated for an additional 2 hours. The absorbance at 490 nm was read with a Victor3 plate reader (Perkin Elmer) using the medium only control wells as blanks. The 90% inhibition value (CC90) was determined by comparing the absorbance in wells containing cells and test compound to untreated cell control wells.

HCV Replicon 1b = assay: HCV inhibition assay, HCV replicon 1b (Clone A or ET-lunet cells; RT-PCR or luciferase reporter); format: cell-based; conditions: Hepatitis C virus, 96 h, HCV replicon 1b; 4 days incubation; read-out: Replicon 1b potency EC90
Method: HCV inhibition assay. Clone A or ET-lunet cells were seeded at a density of 1500 or 3000 cells per well in a 96-well plate, respectively. Test compounds serially diluted in culture medium without G418 were added to cells so that the final DMSO concentration was 0.5%. Plates were incubated at 37° C. in a 5% CO2 atmosphere for 4 days. Inhibition of HCV RNA replication was determined by real time PCR (RT-PCR) or by measuring the levels of luminescence expressed via the luciferase reporter gene encoded within the ET replicon. Briefly, for the RT-PCR assay, total RNA was extracted using the RNeasy-96 kit as recommended by the manufacturer (Qiagen, Valencia, Calif.), reversed transcribed into cDNA, and amplified using primer and probe mix for HCV 5′-NTR RNA and human ribosomal RNA (rRNA) in a one-step RT-PCR reaction as described previously (50). A relative quantification method was used to determine the extent of inhibition. The threshold cycle (Ct) of rRNA was subtracted from the Ct of HCV RNA (ΔCt). The average ΔCt of the DMSO cell controls was then subtracted from the ΔCt of the compound treated sample (ΔΔCt). Percent inhibition was determined by using the following equation: %=(1−(2^−ΔΔC^t))×100. For the luciferase-based replicon assay, luminescence was measured by using a Victor3 plate reader (Perkin-Elmer, Boston, Mass.) following the addition of Bright-Glo reagent as recommended by the manufacturer (Promega, Madison, Wis.). Percent inhibition of HCV replication was determined by comparing the change in luminescence of the drug treated wells versus the DMSO cell controls. EC50 and EC90 values, the concentrations at which 50% and 90% inhibition were achieved, were determined using the GraphPad Prism software (San Diego, Calif.).

| Compound | CC90 at 8 days [1] [µM] | EC90 (HCV Replicon 1b) [µM] |
| --- | --- | --- |
| CC(C)C[C@H]1CN(C(=O)c2cc(-c3ccccc3)on2)[C@@H](CC(C)C)C(=O)N1 [Compound 108] | > 10 | 0.52 |
| CC(C)C[C@H]1CN(C(=O)c2cc(-c3cccs3)on2)[C@@H](CC(C)C)C(=O)N1 [Compound 109] | > 10 | 0.54 |
| CC(C)C[C@H]1C(=O)N[C@@H](c2ccccc2)CN1C(=O)c1cc(-c2cccs2)on1 [Compound 110] | > 10 | 0.59 |
| CC(C)C[C@H]1C(=O)N[C@@H](C(C)C)CN1C(=O)c1cc(-c2cccs2)on1 [Compound 111] | > 10 | 0.8 |
| CC(C)C[C@H]1CN(C(=O)c2cc(-c3ccc(Cl)s3)on2)[C@@H](CC(C)C)C(=O)N1 [Compound 112] | > 10 | 0.95 |
| CC(C)C[C@H]1CN(C(=O)C#Cc2ccc(F)cc2)[C@@H](CC(C)C)C(=O)N1 [Compound 113] | > 10 | 3.4 |
| CC(C)C[C@H]1CN(C(=O)C#Cc2ccccc2)[C@@H](CC(C)C)C(=O)N1 [Compound 114] | > 10 | 4.08 |
| Cc1ccc(C#CC(=O)N2C[C@H](CC(C)C)NC(=O)[C@@H]2CC(C)C)cc1 [Compound 115] | > 10 | 5.01 |
| CC(C)C[C@H]1CN(C(=O)C#Cc2ccc(F)c(F)c2)[C@@H](CC(C)C)C(=O)N1 [Compound 116] | > 10 | 9.65 |
| CC(C)C[C@H]1CN(C(=O)C#Cc2ccc(F)cc2F)[C@@H](CC(C)C)C(=O)N1 [Compound 117] | > 10 | 2.66 |
| COc1ccc(C#CC(=O)N2C[C@H](CC(C)C)NC(=O)[C@@H]2CC(C)C)cc1 [Compound 118] | > 10 | 2.96 |
| CC(C)C[C@H]1CN(C(=O)C#Cc2ccc(Cl)cc2F)[C@@H](CC(C)C)C(=O)N1 [Compound 119] | > 10 | 6.2 |
| CC(C)C[C@H]1CN(C(=O)C#Cc2ccc(Cl)cc2)[C@@H](CC(C)C)C(=O)N1 [Compound 120] | > 10 | 9.16 |
| CC(C)C[C@H]1CN(C(=O)C#Cc2cc(F)c(F)c(F)c2)[C@@H](CC(C)C)C(=O)N1 [Compound 121] | > 10 | 3.23 |
| CC(C)C[C@H]1CN(C(=O)C#Cc2ccc(C(F)(F)F)cc2)[C@@H](CC(C)C)C(=O)N1 [Compound 122] | > 10 | 7.54 |
| CC(C)C[C@H]1CN(C(=O)c2cc(-c3ccc(F)c(F)c3)on2)[C@@H](CC(C)C)C(=O)N1 [Compound 123] | > 10 | 0.97 |
| CC(C)C[C@H]1CN(C(=O)c2cc(-c3ccc(F)cc3)on2)[C@@H](CC(C)C)C(=O)N1 [Compound 124] | > 10 | 0.11 |
| CC(C)C[C@H]1CN(C(=O)c2cc(-c3ccc(Cl)cc3)on2)[C@@H](CC(C)C)C(=O)N1 [Compound 125] | > 10 | 0.26 |
| Cc1ccc(-c2cc(C(=O)N3C[C@H](CC(C)C)NC(=O)[C@@H]3CC(C)C)no2)cc1 [Compound 126] | > 10 | 1.66 |
| COc1ccc(-c2cc(C(=O)N3C[C@H](CC(C)C)NC(=O)[C@@H]3CC(C)C)no2)cc1 [Compound 127] | > 10 | 1.14 |
| CC(C)C[C@H]1CN(C(=O)c2cc(-c3cccc(F)c3)on2)[C@@H](CC(C)C)C(=O)N1 [Compound 128] | > 10 | 0.84 |
| CC(C)C[C@H]1CN(C(=O)c2cc(-c3cccc(Cl)c3)on2)[C@@H](CC(C)C)C(=O)N1 [Compound 129] | > 10 | 2.93 |

| Compound | CC90 at 8 days [1] [µM] | EC90 (HCV Replicon 1b) [µM] |
| --- | --- | --- |
| COc1cccc(-c2cc(C(=O)N3C[C@H](CC(C)C)NC(=O)[C@@H]3CC(C)C)no2)c1 [Compound 130] | > 10 | 5.75 |
| COc1ccccc1-c1cc(C(=O)N2C[C@H](CC(C)C)NC(=O)[C@@H]2CC(C)C)no1 [Compound 131] | > 10 | 3.49 |
| CC(C)C[C@H]1CN(C(=O)c2cc(-c3ccc(C(C)(C)C)cc3)on2)[C@@H](CC(C)C)C(=O)N1 [Compound 132] | > 10 | 4.33 |
| CC(C)C[C@H]1CN(C(=O)c2cc(-c3ccc(F)cc3F)on2)[C@@H](CC(C)C)C(=O)N1 [Compound 133] | > 10 | 0.6 |
| CC(C)C[C@H]1CN(C(=O)c2cc(-c3ccc(Cl)c(F)c3)on2)[C@@H](CC(C)C)C(=O)N1 [Compound 134] | > 10 | 0.89 |
| CC(C)C[C@H]1CN(C(=O)c2cc(-c3ccc(Br)cc3)on2)[C@@H](CC(C)C)C(=O)N1 [Compound 135] | > 10 | 0.47 |
| CC(C)C[C@H]1CN(C(=O)c2cc(-c3ccc(C#N)cc3)on2)[C@@H](CC(C)C)C(=O)N1 [Compound 136] | > 10 | 1.53 |
| CC(C)C[C@H]1C(=O)N[C@@H](C2CCCC2)CN1C(=O)c1cc(-c2ccc(C#N)cc2)on1 [Compound 137] | > 10 | 0.8 |
| CC(C)C[C@H]1CN(C(=O)c2cc(-c3cccc(OC(F)(F)F)c3)on2)[C@@H](CC(C)C)C(=O)N1 [Compound 138] | > 10 | 7.04 |
| CC(C)C[C@H]1CN(C(=O)c2cc(-c3ccc(C(=O)N(C)C)cc3)on2)[C@@H](CC(C)C)C(=O)N1 [Compound 139] | > 10 | > 10 |
| CC(C)C[C@H]1CN(C(=O)c2cc(-c3ccc(N(C)C)cc3)on2)[C@@H](CC(C)C)C(=O)N1 [Compound 140] | > 10 | > 10 |
| CC(C)C[C@H]1CN(C(=O)c2cc(-c3ccc(F)c(Cl)c3)on2)[C@@H](CC(C)C)C(=O)N1 [Compound 141] | > 10 | 1.78 |
| CC(C)C[C@H]1CN(C(=O)c2cc(-c3ccccc3F)on2)[C@@H](CC(C)C)C(=O)N1 [Compound 142] | > 10 | 2.01 |
| CC(C)C[C@H]1CN(C(=O)c2cc(-c3ccc(Cl)cc3F)on2)[C@@H](CC(C)C)C(=O)N1 [Compound 143] | > 10 | 1.21 |
| CC(C)C[C@H]1CN(C(=O)c2cc(-c3ccc(F)cc3)no2)[C@@H](CC(C)C)C(=O)N1 [Compound 144] | > 10 | 0.33 |
| CC(C)C[C@H]1C(=O)N[C@@H](c2ccccc2)CN1C(=O)c1cc(-c2ccc(F)cc2)no1 [Compound 145] | > 10 | 0.23 |
| CC(C)C[C@H]1C(=O)N[C@@H](C(C)C)CN1C(=O)c1cc(-c2ccc(F)cc2)no1 [Compound 146] | > 10 | 0.73 |
| CSC[C@H]1CN(C(=O)c2cc(-c3ccc(F)cc3)no2)[C@@H](CC(C)C)C(=O)N1 [Compound 147] | > 10 | 1.27 |
| CC(C)C[C@H]1CN(C(=O)c2nc(-c3ccc(F)cc3)no2)[C@@H](CC(C)C)C(=O)N1 [Compound 148] | > 10 | 0.37 |
| CCC[C@H]1CN(C(=O)c2nc(-c3ccc(F)cc3)no2)[C@@H](CC(C)C)C(=O)N1 [Compound 149] | > 10 | 0.05 |
| CCC[C@H]1CN(C(=O)c2nc(-c3ccccc3)no2)[C@@H](CC(C)C)C(=O)N1 [Compound 150] | > 10 | 0.59 |
